From US11787839B2, “Targeting α2δ-1-bound glutamate receptors for treating diseases and disorders” (Board of Regents, The University of Texas System, priority 2017, dated 2023)

What was measured:
Cacna2d1 KO mice = assay: Nerve injury-induced pain hypersensitivity in Cacna2d1 KO mice; format: in vivo, mouse
Protocol: Conventional α2δ-1 KO mice (C57BL/6 genetic background) were generated as described previously (Muller et al., 2010). Two breeding pairs of α2δ-1^+/− mice were purchased from Medical Research Council (Harwell Didcot, Oxfordshire, UK), and α2δ-I^−/− mice and α2δ-1^+/+ (wild-type) littermates were obtained by breeding the heterozygous mice. The spared nerve injury (SNI) procedure […] was performed on both male and female mice (10-11 weeks of age). Under a surgical microscope, the left common peroneal and tibial nerves were ligated and sectioned, leaving the sural nerve intact. The sham procedure consisted of the same surgery without nerve ligation and sectioning.
Behavioral assessments of nociception: To detect tactile allodynia, von Frey filaments were applied to the animals' left hindpaws (ipsilateral to the nerve injury). The rats or mice were placed individually in suspended chambers on a mesh floor. […] Using the up-down method, the tactile stimulus that produced a 50% likelihood of a withdrawal response was calculated (Fuller-Bicer et al., 2009).
To quantify the mechanical nociceptive threshold in the rats and mice (Patel et al., 2013; Dolphin et al., 2012), the paw pressure tests were conducted on the hindpaw with an analgesiometer (Ugo Basile, Varese, Italy). […]

SHRs = assay: PVN microinjection and recording of ABP and RSNA in SHRs; format: in vivo, rat; conditions: 50 pmol
Protocol: PVN microinjection and recording of renal sympathetic nerve activity: Rats were anaesthetized via i.p. administration of a mixture of α-chloralose (60 mg kg-1) and urethane (800 mg kg-1) and mechanically ventilated with trachea cannulation. The arterial blood pressure (ABP) was monitored via a catheter placed in the left femoral artery, and heart rate (HR) was extracted from the pulsatile pressure wave. A retroperitoneal incision was made, and a branch of the left renal postganglionic sympathetic nerve was isolated under a surgical microscope. The renal sympathetic nerve was cut distally to ensure that afferent activity was not recorded. The ABP, HR and renal sympathetic nerve activity (RSNA) were recorded using a 1401-PLUS analogue-to-digital converter and Spike2 system (Cambridge Electronic Design, Cambridge, UK). After the brain was exposed, a microinjection pipette (tip diameter 20-30 μm) was advanced into the PVN in accordance with the stereotactic co-ordinates: 1.6-2.0 mm caudal to the bregma, 0.5 mm lateral to the midline and 7.0-7.5 mm ventral to the dura. The microinjection was performed using a Nanoject II (Drummond Scientific Company) and monitored using a surgical microscope as described previously (Li & Pan, 2006, 2007; Qiao et al. 2017). […] At the end of each experiment, the electrical background noise was measured after the proximal end of renal nerve was crushed at the end of each experiment. To determine the location of the injection site and diffusion of the drugs in the PVN, 5% rhodamine-labelled fluorescent microspheres (0.04 μm; Molecular Probes) were included in the injection solution. Rats were excluded from the data analysis if the microinjections were misplaced outside the PVN.

[1] = test system: GluN1/GluN2A or GluN1/GluN2B NMDARs with or without α2δ-1 in HEK293 cells; assay: Whole-cell recording of NMDAR currents in HEK293 cells; format: cell-based, rat; set-up: α2δ-1 co-expression-induced increase in the NMDAR current density / NMDAR currents in cells expressing GluN1/GluN2A or GluN1/GluN2B alone: dose or concentration left out as unconfirmed
Excerpt: Cell culture and transfection: HEK293 cells (American Type Culture Collection, Manassas, Va.) were maintained in Dulbecco's modified Eagle medium (DMEM) (#10-017-CV, Corning, Manassas, Va.) supplemented with 10% fetal bovine serum (#F4135, Sigma-Aldrich) and penicillin/streptomycin (#30-002-CI, Corning). Cells were passaged after they reached a confluence of 80-90%, approximately every 2 days. HEK293 cells were transfected using PolyJet reagents (#SL100688, SignaGen Laboratories, Gaithersburg, Md.) at a GluN1/GluN2/α2δ-1 ratio of 1:3:1 (the DNA:PolyJet ratio was 1:3).
Whole-cell recording of NMDAR currents in HEK293 cells: Whole-cell recording was performed using a fire-polished pipette (3-5 MΩ) pulled from borosilicate glass and filled with an intracellular solution containing (in mM) 135 CsF, 2 MgCl2, 0.5 CaCl2, 5 EGTA, 2 Mg-ATP and 10 HEPES (pH, 7.25; 285 mOsmol/L). The extracellular solution contained (in mM) 160 NaCl, 2.5 KCl, 0.2 CaCl2, 10 HEPES, and 10 glucose (pH, 7.35; 300-310 mOsmol/L). Whole-cell currents were recorded with an EPC-10 amplifier (HEKA Instruments, Lambrecht, Germany) at a holding potential of −60 mV. Signals were filtered at 1 kHz, digitized at 10 kHz and acquired using the Pulse program (HEKA Instruments). After the whole-cell configuration was established, the cell membrane capacitance and series resistance were electronically compensated for. Glycine (10 μM) and NMDA (300 μM) were used to elicit NMDAR currents. For voltage-dependent Mg^2+ block experiments, the conductance-voltage relation of NMDARs was assessed when 2 mM MgCl2 was added to the extracellular solution. The sensitivity of NMDARs to Mg^2+ was estimated by fitting current-voltage relationships to a Boltzmann function (Zhou et al., 2012). All HEK293 cell recording experiments were performed at 25° C.

Compound: YGRKKRRQRRRVSGLNPSLWSIFGLQFILLWLVSGSRHYLW (a2d1 peptide) [α2δ-1Tat peptide, 30-amino-acid peptide mimicking the C-terminal domain of α2δ-1 fused to the cell-penetrating peptide Tat]
- nerve injury-induced pain hypersensitivity in Cacna2d1 KO mice (Cacna2d1 KO mice): had no effect
- ABP and RSNA (SHRs; 50 nL bilaterally into the PVN): significantly decreased
- duration of the effect on the mean ABP and RSNA (SHRs; 50 nL into the PVN): more than 60 min

Compound: NCC1(CC(=O)O)CCCCC1 [gabapentin]
- α2δ-1 co-expression-induced increase in the NMDAR current density ([1]; HEK293): completely reversed
- NMDAR currents in cells expressing GluN1/GluN2A or GluN1/GluN2B alone ([1]; HEK293 without α2δ-1): had no effect
- α2δ-1-reduced voltage-dependent Mg2+ block of GluN1/GluN2A NMDARs ([1]; at −40 and −60 mV): reversed this effect
